In assay [1] the target is PIK3CD (Human) (UniProt O00329). The assay can be described thus: Enzyme Assay.
Assay [2] concerns the target PIK3CA (human) (UniProt P42336). The assay can be described thus: Enzyme Assay.
Assay [3] concerns the target PIK3CG (human) (UniProt P48736). The assay can be described thus: Enzyme Assay.
Assay [4] has as its target PIK3CD (Human) (UniProt O00329). The assay can be described thus: Cell-Based Assay. The following applies: rat-1.
The target in assay [5] is PIK3CA (human) (UniProt P42336). The assay can be described thus: Cell-Based Assay. Particulars: rat-1.
Assay [6] concerns the target PIK3CG (human) (UniProt P48736). Put plainly: Cell-Based Assay. Particulars: u937.

Consider seven compounds from the Kinase Knowledgebase extract (Sharma et al. 2016).

Sequence of PIK3CD (Human) (O00329 whole entry, looked up): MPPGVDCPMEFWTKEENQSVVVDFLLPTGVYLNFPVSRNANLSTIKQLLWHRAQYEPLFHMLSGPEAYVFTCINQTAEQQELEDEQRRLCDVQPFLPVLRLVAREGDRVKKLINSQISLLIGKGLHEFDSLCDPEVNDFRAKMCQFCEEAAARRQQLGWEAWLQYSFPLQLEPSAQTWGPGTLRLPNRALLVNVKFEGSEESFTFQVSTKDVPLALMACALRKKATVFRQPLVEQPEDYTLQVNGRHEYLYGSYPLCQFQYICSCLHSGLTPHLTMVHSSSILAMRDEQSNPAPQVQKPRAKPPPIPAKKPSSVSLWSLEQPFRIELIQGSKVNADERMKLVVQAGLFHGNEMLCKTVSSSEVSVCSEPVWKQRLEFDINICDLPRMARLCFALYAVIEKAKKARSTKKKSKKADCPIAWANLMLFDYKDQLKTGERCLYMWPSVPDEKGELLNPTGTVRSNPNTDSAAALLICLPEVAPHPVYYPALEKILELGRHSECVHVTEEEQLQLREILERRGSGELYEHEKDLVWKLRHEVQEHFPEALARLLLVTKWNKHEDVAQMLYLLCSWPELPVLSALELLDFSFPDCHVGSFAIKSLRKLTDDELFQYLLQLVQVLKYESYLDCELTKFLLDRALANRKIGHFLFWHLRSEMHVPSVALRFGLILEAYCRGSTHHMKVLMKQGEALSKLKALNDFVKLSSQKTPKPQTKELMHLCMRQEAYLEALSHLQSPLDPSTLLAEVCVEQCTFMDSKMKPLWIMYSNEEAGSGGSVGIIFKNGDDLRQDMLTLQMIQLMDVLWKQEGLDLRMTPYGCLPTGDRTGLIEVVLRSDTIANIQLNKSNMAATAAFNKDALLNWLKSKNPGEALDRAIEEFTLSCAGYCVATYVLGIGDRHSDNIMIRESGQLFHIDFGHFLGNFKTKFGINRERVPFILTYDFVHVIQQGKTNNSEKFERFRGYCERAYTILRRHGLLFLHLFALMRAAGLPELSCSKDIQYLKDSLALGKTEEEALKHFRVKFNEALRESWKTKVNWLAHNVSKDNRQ
Sequence of PIK3CG (human) (P48736 whole entry, looked up): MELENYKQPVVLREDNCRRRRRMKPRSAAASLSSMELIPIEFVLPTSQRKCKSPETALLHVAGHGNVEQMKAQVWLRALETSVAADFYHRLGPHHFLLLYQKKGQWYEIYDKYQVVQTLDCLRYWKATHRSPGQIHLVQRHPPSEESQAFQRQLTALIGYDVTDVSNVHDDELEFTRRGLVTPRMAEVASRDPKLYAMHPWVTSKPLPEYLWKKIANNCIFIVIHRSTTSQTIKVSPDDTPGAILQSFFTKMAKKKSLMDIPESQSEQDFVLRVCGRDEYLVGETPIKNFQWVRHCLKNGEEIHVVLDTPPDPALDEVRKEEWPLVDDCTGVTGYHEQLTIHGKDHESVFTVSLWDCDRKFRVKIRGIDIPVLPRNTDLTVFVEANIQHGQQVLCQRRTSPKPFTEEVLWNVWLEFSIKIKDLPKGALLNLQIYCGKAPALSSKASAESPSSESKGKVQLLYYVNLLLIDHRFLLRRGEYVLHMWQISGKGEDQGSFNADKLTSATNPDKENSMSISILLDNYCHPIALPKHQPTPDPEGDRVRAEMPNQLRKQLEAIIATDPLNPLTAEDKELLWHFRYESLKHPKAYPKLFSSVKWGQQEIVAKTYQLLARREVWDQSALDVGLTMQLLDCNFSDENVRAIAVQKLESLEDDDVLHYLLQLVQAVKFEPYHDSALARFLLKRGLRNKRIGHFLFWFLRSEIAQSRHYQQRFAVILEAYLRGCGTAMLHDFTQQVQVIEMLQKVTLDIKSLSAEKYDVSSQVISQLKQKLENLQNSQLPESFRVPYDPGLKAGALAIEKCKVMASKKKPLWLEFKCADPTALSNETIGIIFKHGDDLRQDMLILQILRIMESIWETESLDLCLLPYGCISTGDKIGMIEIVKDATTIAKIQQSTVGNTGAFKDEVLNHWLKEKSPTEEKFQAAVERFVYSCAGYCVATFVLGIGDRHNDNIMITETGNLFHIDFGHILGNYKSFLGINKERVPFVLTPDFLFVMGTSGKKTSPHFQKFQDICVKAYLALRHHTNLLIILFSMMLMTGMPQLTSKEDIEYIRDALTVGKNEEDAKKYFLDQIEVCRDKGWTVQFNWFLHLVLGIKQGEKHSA
Sequence of PIK3CA (human) (P42336 whole entry, looked up): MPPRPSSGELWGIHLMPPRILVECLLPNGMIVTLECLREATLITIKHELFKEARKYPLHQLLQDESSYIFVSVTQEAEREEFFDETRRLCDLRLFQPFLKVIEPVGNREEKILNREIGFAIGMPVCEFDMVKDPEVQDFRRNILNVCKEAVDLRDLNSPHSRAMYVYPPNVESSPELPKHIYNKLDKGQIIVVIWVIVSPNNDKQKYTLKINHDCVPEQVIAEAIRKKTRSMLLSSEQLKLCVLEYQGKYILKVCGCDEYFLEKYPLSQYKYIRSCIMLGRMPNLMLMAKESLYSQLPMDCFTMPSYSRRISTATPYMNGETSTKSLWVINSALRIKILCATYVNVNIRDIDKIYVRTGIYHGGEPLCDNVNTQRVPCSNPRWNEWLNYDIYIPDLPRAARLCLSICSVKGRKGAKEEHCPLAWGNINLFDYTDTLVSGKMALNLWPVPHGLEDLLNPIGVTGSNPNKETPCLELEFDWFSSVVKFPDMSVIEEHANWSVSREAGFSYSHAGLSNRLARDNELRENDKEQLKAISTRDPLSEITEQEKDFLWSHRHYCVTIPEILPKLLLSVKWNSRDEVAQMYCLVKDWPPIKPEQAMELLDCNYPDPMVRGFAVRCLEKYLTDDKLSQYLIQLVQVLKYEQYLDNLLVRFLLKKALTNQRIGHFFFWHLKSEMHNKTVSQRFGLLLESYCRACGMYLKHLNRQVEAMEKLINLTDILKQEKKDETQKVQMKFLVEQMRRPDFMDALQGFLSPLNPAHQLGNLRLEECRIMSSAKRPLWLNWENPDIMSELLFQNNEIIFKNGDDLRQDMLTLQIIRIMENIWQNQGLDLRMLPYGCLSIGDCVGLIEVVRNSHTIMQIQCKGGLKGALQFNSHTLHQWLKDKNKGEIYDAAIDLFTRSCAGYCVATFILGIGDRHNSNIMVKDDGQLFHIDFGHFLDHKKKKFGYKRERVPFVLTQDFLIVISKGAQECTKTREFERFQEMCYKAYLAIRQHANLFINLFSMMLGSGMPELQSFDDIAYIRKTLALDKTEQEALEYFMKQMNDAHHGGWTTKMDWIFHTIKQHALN

Regarding `Cc1nc(N)nc(N2C[C@@H](O)C[C@H]2c2nc3ccc(F)c(Cl)c3c(=O)n2-c2ccccc2)c1C#N`, the IC50 in assay [1] stood at 13 nM; in assay [2], 280 nM; in assay [3], 14 nM; in assay [4], 10 nM; in assay [5], 1950 nM; in assay [6] it was 7 nM.

Turning to `CO[C@H]1C[C@@H](c2nc3cccc(Cl)c3c(=O)n2-c2ccccc2)N(c2nc(N)nc(C)c2C#N)C1`, the IC50 was found to be 53 nM in assay [1]; 565 nM in assay [2]; 30 nM in assay [3]; 6 nM in assay [4]; 1320 nM in assay [5]; 38 nM in assay [6].

Consider `Cc1nc(N)nc(N2C[C@@H](O)C[C@H]2c2nc3cccc(OC(F)F)c3c(=O)n2-c2ccccc2)c1C#N`, for which the IC50 in assay [1] was 75 nM; in assay [2], 450 nM; in assay [3] it was 140 nM; in assay [4], 45 nM; in assay [5] it was 4670 nM; in assay [6], 70 nM.

As to `Nc1nc(N2CCC[C@H]2c2nc3cccc(Cl)c3c(=O)n2N2CCOCC2)c2nc[nH]c2n1`, the IC50 in assay [1] is 42 nM; in assay [2], 4600 nM; in assay [3], 63 nM; in assay [4] it was 65 nM; in assay [5] it was above 10000 nM; in assay [6], 1820 nM.

As to `Nc1nc(N2C[C@@H](O)C[C@H]2c2nc3cccc(C(F)(F)F)c3c(=O)n2-c2ccccc2)c2nc[nH]c2n1`, the half-inhibitory concentration (IC50) came to 11 nM in assay [1]; 510 nM in assay [2]; 27 nM in assay [3]; 87 nM in assay [4]; 7540 nM in assay [5]; 38 nM in assay [6].

In the case of `Cc1nc(N)nc(N2C[C@@H](O)C[C@H]2c2nc3cccc(Cl)c3c(=O)n2-c2cccnc2)c1C#N`, the concentration for half-maximal inhibition (IC50) came to 12 nM in assay [1]; 1000 nM in assay [2]; 86 nM in assay [3]; 9 nM in assay [4]; 6240 nM in assay [5]; 24 nM in assay [6].

Consider `Cc1nc(N)nc(N2C[C@@H](O)C[C@H]2c2nc3cccc(Cl)c3c(=O)n2C2CC2)c1C#N`, for which the IC50 was determined as 221 nM in assay [1]; 698 nM in assay [2]; 85 nM in assay [3]; 86 nM in assay [4]; 4230 nM in assay [5]; 219 nM in assay [6].
